Source: patent publication US9629861B2, “Compositions and methods for treating bacterial infections using ceftaroline” (Forest Laboratories Holdings Limited, priority 2009, dated 2017)

How the values were obtained:
CYP2A6 = molecular target: T1, CYP2A6 (Homo sapiens, UniProt P11509); experiment: CYP inhibition in human liver microsomes; assay type: in vitro ADME
T1 construct: In vitro studies in human liver microsomes; from tissue; host or cells: human liver microsomes

[1] = Pharmacokinetics of ceftaroline after IV infusion of ceftaroline fosamil in adults with normal renal function; design: species or system human; conditions: in vivo
Source text: The standard deviation is shown in brackets.

[2] = test system: Community-Acquired Bacterial Pneumonia (CABP); experiment: Phase 3 CABP Study 2 (Example 4, no adjunctive macrolide); assay type: in vivo, human; conditions: for Clinical Cure Rate at TOC / Treatment Difference in clinical cure rate at TOC: CABP Study 2; for Difference, clinical cure rate at EOT / Difference, favorable microbiological outcome at TOC: ceftaroline minus ceftriaxone, Example 4; for Treatment Difference in clinical cure rate at TOC: versus ceftriaxone
Description: (§1) In both treatment groups of CABP Study 1, two doses of oral clarithromycin (500 mg q12h), were administered as adjunctive therapy starting on Study Day 1. No adjunctive macrolide therapy was used in CABP Study 2. Patients with new or progressive pulmonary infiltrate(s) on chest radiography and clinical signs and symptoms consistent with CABP with the need for hospitalization and IV therapy were enrolled in the studies. Treatment duration was 5 to 7 days. A switch to oral therapy was not allowed. The Modified Intent-to-Treat Efficacy (MITTE) population included all patients who received any amount of study drug according to their randomized treatment group and were in PORT (Pneumonia Outcomes Research Team) Risk Class III or IV.
The primary efficacy endpoint was the clinical response at the Test of Cure (TOC) visit in the co-primary CE and MITTE populations (Table 4).
The secondary objectives of the study were to evaluate the following: clinical response at end-of-therapy (EOT); the microbiological favorable outcome rate at TOC; the overall (clinical and radiographic) success rate at TOC; the clinical and microbiological response by pathogen at TOC; clinical relapse at late follow-up (LFU); microbiological reinfection/recurrence at LFU; and safety.
The following criteria were used for evaluation: The primary efficacy outcome measures were the per-subject clinical cure rate at test-of-cure (TOC) in the CE and MITTE Populations. Subjects were considered clinically cured at TOC if they had total resolution of all signs and symptoms of the baseline infection, or improvement of the infection such that no further antimicrobial therapy was necessary.
Non-inferiority was concluded if the lower limit of the 95% CI was higher than −10%.

CYP2E1 = molecular target: T2, CYP2E1 (Homo sapiens, UniProt P05181); experiment: CYP inhibition in human liver microsomes; assay type: in vitro ADME
T2 construct: In vitro studies in human liver microsomes; from tissue; host or cells: human liver microsomes
T2 sequence (P05181 whole entry): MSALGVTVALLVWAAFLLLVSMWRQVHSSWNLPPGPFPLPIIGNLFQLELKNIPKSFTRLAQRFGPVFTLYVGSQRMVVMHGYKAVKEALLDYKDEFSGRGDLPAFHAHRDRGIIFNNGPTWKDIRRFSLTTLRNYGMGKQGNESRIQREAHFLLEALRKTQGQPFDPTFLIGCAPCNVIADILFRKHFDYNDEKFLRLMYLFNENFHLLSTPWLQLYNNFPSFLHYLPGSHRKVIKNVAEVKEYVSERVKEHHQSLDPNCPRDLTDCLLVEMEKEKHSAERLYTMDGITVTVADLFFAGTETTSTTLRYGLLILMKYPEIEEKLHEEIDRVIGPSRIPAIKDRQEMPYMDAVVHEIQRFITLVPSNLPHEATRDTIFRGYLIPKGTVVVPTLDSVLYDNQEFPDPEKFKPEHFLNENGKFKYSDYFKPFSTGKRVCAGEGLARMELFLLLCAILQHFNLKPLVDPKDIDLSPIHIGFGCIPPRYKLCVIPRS

CYP2C19 [3] = molecular target: T3, CYP2C19 (Homo sapiens, UniProt P33261); experiment: CYP inhibition in human liver microsomes; assay type: in vitro ADME
T3 construct: In vitro studies in human liver microsomes; from tissue; host or cells: human liver microsomes
T3 sequence (P33261 whole entry): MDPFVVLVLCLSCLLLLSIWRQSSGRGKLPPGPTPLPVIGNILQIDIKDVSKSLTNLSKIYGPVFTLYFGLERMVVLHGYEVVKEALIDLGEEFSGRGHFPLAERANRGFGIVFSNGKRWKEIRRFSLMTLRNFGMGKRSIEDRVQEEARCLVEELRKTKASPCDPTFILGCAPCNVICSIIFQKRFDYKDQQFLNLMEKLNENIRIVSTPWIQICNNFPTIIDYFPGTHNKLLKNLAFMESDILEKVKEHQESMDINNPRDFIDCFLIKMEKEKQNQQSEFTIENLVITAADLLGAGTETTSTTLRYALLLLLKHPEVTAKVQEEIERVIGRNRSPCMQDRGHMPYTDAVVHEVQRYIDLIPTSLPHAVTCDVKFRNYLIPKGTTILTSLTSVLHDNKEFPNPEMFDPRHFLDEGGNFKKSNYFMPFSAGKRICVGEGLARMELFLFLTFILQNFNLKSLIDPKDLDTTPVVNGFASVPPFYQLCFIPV

[4] = test system: complicated skin and skin structure infections (cSSSI); experiment: Two Phase 3 studies in cSSSI, integrated; assay type: in vivo, human; conditions: co-primary CE and MITT populations
Description: A total of 1396 adults with clinically documented complicated skin and skin structure infections (cSSSI) were enrolled in two randomized, multi-center, multinational, double-blind, studies comparing 600 mg ceftaroline fosamil administered intravenously over 1 hour every 12 hours to vancomycin plus aztreonam [1 g vancomycin administered intravenously over 1 hour followed by 1 g aztreonam administered intravenously over 1 hour every 12 hours]. Patients with cSSSI (deep/extensive cellulitis, a major abscess, a wound infection [surgical or traumatic], infected insect bites, burns or ulcers, lower extremity infection in patients with diabetes mellitus or peripheral vascular disease), were enrolled in the studies. Treatment duration was 5 to 14 days. A switch to oral therapy was not allowed. The Modified Intent-to-Treat (MITT) population included all patients who received any amount of study drug according to their randomized treatment group.
The primary efficacy endpoint was clinical response at the Test of Cure (TOC) visit in the co-primary CE and MITT populations (Table 2). […] In a subgroup analysis (CE population), the comparative clinical cure rates between the ceftaroline group and the vancomycin plus aztreonam group were not affected by age, gender, race, ethnicity, or weight.

CYP1A1 = molecular target: T4, CYP1A1 (Homo sapiens, UniProt P04798); experiment: CYP inhibition in human liver microsomes; assay type: in vitro ADME
T4 construct: In vitro studies in human liver microsomes; from tissue; host or cells: human liver microsomes
T4 sequence (P04798 whole entry): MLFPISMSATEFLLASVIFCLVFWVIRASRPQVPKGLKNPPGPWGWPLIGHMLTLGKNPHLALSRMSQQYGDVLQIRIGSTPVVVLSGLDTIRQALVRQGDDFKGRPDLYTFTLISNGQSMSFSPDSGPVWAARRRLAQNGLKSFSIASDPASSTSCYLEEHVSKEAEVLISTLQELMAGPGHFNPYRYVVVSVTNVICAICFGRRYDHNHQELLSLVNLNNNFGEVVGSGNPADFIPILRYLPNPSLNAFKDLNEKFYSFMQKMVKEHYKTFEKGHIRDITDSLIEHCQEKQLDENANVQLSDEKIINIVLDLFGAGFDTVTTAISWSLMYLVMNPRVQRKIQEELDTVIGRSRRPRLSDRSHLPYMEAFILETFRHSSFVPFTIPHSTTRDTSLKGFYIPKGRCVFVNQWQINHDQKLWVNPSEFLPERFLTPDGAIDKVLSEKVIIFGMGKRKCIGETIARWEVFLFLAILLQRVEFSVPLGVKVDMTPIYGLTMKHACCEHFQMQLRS

CYP2B6 = experiment: CYP induction in human hepatocytes; assay type: in vitro ADME
[5] = test system: Community-Acquired Bacterial Pneumonia (CABP); experiment: Two Phase 3 studies in CABP, integrated; assay type: in vivo, human; conditions: for Clinical Cure Rate at TOC / Treatment Difference in clinical cure rate at TOC: integrated CABP studies; for Clinical Cure Rate at TOC: after 5 to 7 days of therapy; for Treatment Difference in clinical cure rate at TOC / Weighted treatment difference (95% CI): versus ceftriaxone; for Weighted treatment difference (95% CI): combined CABP studies
Description: as §1
The primary efficacy endpoint was the clinical response at the Test of Cure (TOC) visit in the co-primary CE and MITTE populations (Table 4). In a subgroup analysis (CE population), the comparative clinical cure rates between the ceftaroline group and the ceftriaxone group were not affected by age, gender, race, ethnicity, or weight.

CYP2C9 = experiment: CYP induction in human hepatocytes; assay type: in vitro ADME
H. parainfluenzae = experiment: Example 5 CAP study, outcome by baseline pathogen; assay type: in vivo, Haemophilus parainfluenzae
Source text: (§2) Per-pathogen clinical cure rate and favorable microbiological outcome rate at TOC in the mMITTE and ME Populations;

CYP2C8 = molecular target: T5, CYP2C8 (Homo sapiens, UniProt P10632); experiment: CYP inhibition in human liver microsomes; assay type: in vitro ADME
T5 construct: In vitro studies in human liver microsomes; from tissue; host or cells: human liver microsomes
T5 sequence (P10632 whole entry): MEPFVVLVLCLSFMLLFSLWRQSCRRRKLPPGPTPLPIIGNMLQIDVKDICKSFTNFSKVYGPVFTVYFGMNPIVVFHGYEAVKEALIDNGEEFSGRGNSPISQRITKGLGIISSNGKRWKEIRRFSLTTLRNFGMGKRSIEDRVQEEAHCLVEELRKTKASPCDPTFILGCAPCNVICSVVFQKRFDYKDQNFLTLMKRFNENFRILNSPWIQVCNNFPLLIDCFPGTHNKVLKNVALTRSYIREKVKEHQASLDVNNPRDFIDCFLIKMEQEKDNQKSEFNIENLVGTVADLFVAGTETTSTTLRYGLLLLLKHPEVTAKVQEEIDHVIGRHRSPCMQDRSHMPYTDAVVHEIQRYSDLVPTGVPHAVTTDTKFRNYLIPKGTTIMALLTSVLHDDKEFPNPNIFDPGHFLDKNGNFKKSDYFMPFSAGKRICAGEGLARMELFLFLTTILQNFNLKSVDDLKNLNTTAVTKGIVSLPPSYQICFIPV

S. aureus = experiment: Example 4 CAP study, outcome by baseline pathogen; assay type: in vivo, Staphylococcus aureus
Source text: as §2

CYP2C19 [6] = conditions: human hepatocytes

T1 sequence (P11509 whole entry): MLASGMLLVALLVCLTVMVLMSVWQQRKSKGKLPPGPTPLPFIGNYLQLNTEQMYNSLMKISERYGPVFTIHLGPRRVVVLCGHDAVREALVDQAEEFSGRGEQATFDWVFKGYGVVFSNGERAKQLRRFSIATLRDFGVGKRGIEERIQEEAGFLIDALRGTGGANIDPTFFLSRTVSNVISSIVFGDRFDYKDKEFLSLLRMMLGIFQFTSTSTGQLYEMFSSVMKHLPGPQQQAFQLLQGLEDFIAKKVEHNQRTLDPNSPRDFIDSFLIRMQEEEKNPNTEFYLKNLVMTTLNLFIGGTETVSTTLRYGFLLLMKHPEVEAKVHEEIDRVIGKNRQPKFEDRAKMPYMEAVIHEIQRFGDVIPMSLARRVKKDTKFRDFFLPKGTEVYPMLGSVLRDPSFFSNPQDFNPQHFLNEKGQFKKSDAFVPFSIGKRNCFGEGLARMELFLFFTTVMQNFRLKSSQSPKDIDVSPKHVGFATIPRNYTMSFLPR

## CCO/N=C(\C(=O)N[C@@H]1C(=O)N2C(C(=O)[O-])=C(Sc3nc(-c4cc[n+](C)cc4)cs3)CS[C@H]12)c1nsc(N)n1 [Ceftaroline]
CYP2A6
  inhibition of CYP2A6: neither ceftaroline fosamil nor ceftaroline inhibits
[1]; human
  CL/Fm: 9.58 (1.85) L/h
  mean plasma terminal elimination half-life: approximately 2.5 hours
[1]
  Cmax and AUC versus dose: increased approximately in proportion to increases in dose
[2]; CE population
  Clinical Cure Rate at TOC: 193 (82.1) %
[2]; MITTE population
  Clinical Cure Rate at TOC: 235 (81.3) %
[2]; CE
  Difference, clinical cure rate at EOT: 6.0%
  Treatment Difference in clinical cure rate at TOC: 4.9%
[2]; ME
  Difference, favorable microbiological outcome at TOC: 1.8%
[2]; MITTE
  Difference, clinical cure rate at EOT: 7.4%
  Treatment Difference in clinical cure rate at TOC: 5.9%
[2]; mMITTE
  Difference, favorable microbiological outcome at TOC: 0.4%
CYP2E1
  inhibition of CYP2E1: neither ceftaroline fosamil nor ceftaroline inhibits
CYP2C19 [3]
  inhibition of CYP2C19: neither ceftaroline fosamil nor ceftaroline inhibits
[4]
  clinical response at TOC compared with vancomycin plus aztreonam: non-inferior
CYP1A1
  inhibition of CYP1A1: neither ceftaroline fosamil nor ceftaroline inhibits
CYP2B6
  induction of CYP2B6: not inducers
[5]; CE population
  Clinical Cure Rate at TOC: 387/459 (84.3) %
[5]; MITTE population
  Clinical Cure Rate at TOC: 479/580 (82.6) %
[5]; CE
  Treatment Difference in clinical cure rate at TOC: 6.7 (1.6, 11.8) %
[5]; CE, listed as ceftaroline
  Treatment Difference in clinical cure rate at TOC: 6.7%
[5]; ME
  Weighted treatment difference (95% CI): 9.7 (0.7, 18.8) %
[5]; ME, listed as ceftaroline
  Weighted treatment difference (95% CI): 9.7%
[5]; MITTE
  Treatment Difference in clinical cure rate at TOC: 6.0 (1.4, 10.7) %
[5]; mMITTE
  Weighted treatment difference (95% CI): 8.7 (−0.0, 17.4) %
[5]; mMITTE, listed as ceftaroline
  Weighted treatment difference (95% CI): 8.7%
CYP2C9
  induction of CYP2C9: not inducers
H. parainfluenzae; ME
  Favorable Microbiological Outcome at TOC by Baseline Pathogen: 7/7 (100.0) %
H. parainfluenzae; ME population
  Clinical Cure Rate at the TOC Visit by Baseline Pathogen: 7/7 (100.0) %
CYP2C8
  inhibition of CYP2C8: neither ceftaroline fosamil nor ceftaroline inhibits
S. aureus; ME
  Favorable Microbiological Outcome at TOC by Baseline Pathogen: 11/15 (73.3) %
S. aureus; ME population
  Clinical Cure Rate at the TOC Visit by Baseline Pathogen: 10/15 (66.7) %
CYP2C19 [6]
  induction of CYP2C19: not inducers
